IC50 data for 17 molecules are collected here from patent publication US20220389003A1, “4-SUBSTITUTED INDOLE AND INDAZOLE SULFONAMIDO DERIVATIVES AS PARG INHIBITORS” (IDEAYA BIOSCIENCES, INC., priority 2019, published 2022).

The target of test [1] is T1, PARG (Homo sapiens, UniProt Q86W56). Description: Inhibition of PARG enzymatic assay (TR-FRET enzymatic IC50 assay). It is filed as biochemical. Set-up: purchased Peak Proteins. The following applies: hPARG 250 pM, biotinylated-PARylated PARP substrate 30 nM. Here is the method: PARG enzyme was incubated with compound or vehicle (DMSO) and the biotinylated-PARylated PARP substrate in a microtiter plate. After adding detection antibody and streptavidin-europium, and then incubating, the plate was read for fluorescence intensity. The low control (DMSO) with low fluorescence intensity represents no inhibition of enzymatic reaction while the high control (no enzyme) with high fluorescence intensity represents full inhibition of enzymatic reaction.
• PARG • hPARG: 250 pM, His-tagged, Peak Proteins, 0.96 mg/mL (8.58 μM) • Substrate: 30 nM • Reaction time: 70 minutes • Substrate: hPARP1, His- and TEV-tagged, Peak Proteins, 14 μM • Detection Antibody: anti-His monoclonal antibody-ULight, Perkin Elmer catalog #TRF0105-M • Streptavidin-Europium: Perkin Elmer catalog #AD0062 • Assay buffer: 50 mM Tris-HCl pH 7.4, 50 mM KCl, 3 mM EDTA, 0.4 mM EGTA, 1 mM DTT, 0.01% Tween 20, 0.01% BSA • Temperature: 23° C. • Total volume: 20 μL
• 0% inhibition control: DMSO • 100% inhibition control: No enzyme
• 1. Transfer 5 μL of 3× final concentration of test compounds or DMSO to the appropriate wells of a microtiter plate. • 2. Centrifuge the plate at 1000 rpm for 1 minute. • 3. Transfer 5 μL of 3× final concentration of enzyme in assay buffer or assay buffer alone to the appropriate wells. • 4. Centrifuge the plate at 1000 rpm for 1 minute. • 5. Incubate the plate at room temperature for 1 hour. • 6. Transfer 5 μL of 3× substrate in assay buffer to all the test wells. • 7. Centrifuge the plate at 1000 rpm for 1 minute. • 8. Incubate the plate at room temperature for 10 minutes. • 9. Transfer 5 μL of 3× mixture of detection antibody and streptavidin-europium in assay buffer to all the test wells. • 10. Centrifuge the plate at 1000 rpm for 1 minute. • 11. Incubate the plate at room temperature for 1 hour. • 12. Read the plate on a plate reader (e.g., Infinite M1000).
(In general: Time-resolved FRET reads energy transfer from a long-lived donor to a nearby acceptor.)

In test [2] the test system is HCC1806-XRCC1 KD (knock down) cells. The experiment in a line: Cellular viability assay (Cell Titer-Glo). The following applies: 96 h, HCC1806-shXRCC1 cells, 4 days of incubation, read-out: PARGi cell viability. It is filed as cell-based. Here is the method: HCC1806-XRCC1 KD (knock down) cells were plated at 2000 cells/well in 96-well white plates with clear flat bottom. After 24 hours, the compounds of the disclosure were added starting at 30 μM for a 9-point dose response curve at 1:3 dilution. The compounds of the disclosure were added by Tecan digital dispenser excluding the outermost wells of the plate. All treatments were done in duplicates. After 4 days of incubation, 50 ul of Cell Titer-Glo (Promega) was added per well. After incubation with the reagent for 15 minutes, luminescence was read using a plate reader (TECAN). Average values of DMSO treated wells in a plate was calculated. All data points were normalized to that of the average DMSO value. The % of control for each sample compared to DMSO treated control samples. Curves are fit as % of control vs. log [compound concentration] using a 4 parameter inhibition model (Levenberg-Marquardt algorithm):
Fit=(A+((B−A)/(1+((C/x)^D))))
A general note: ATP-based viability assays read luminescence as a measure of living cells.

For test [3], the target named is T1, PARG. The experiment in a line: Inhibition of PARG cellular assay (PAR foci in HeLa cells after MMS). It is filed as cell-based. Set-up: endogenous in cells; host or cells: HeLa. The following applies: compound 1 h then MMS 1 h. Here is the method:
The ability of the compounds disclosed herein to inhibit PARG was determined as described below. Briefly, after treating HeLa cells with the compounds of the disclosure for 1 h, followed by treatment with DNA alkylating agent methylmethanesulfonate (MMS) for an additional 1 h, the cells were fixed in 3.7% formaldehyde. The cells were permeabilized in 0.5% Triton-X100, blocked in 5% goat serum, and incubated with mouse monoclonal antibody against poly (ADP) ribose (PAR) polymer overnight at 4° C. The cells were washed and incubated with an Alexafluor 488-linked secondary antibody together with a nuclear stain (Hoechst 33342) for an hour at room temperature. After washing, images of the cells were captured and analyzed on a high content imaging microscope and software. Two measurement of PAR chain were quantified with the mean intensity over background of the nuclear foci (fluorescent signal at 488 nm range 0.3-2.0 μm foci) quantified as PAR foci (PAR Foci IC50). The cells with a PAR foci signal >1.3 was considered as positive (PAR % positive IC50), and the percentage positive cells are quantified.

A value given as a limit tells only on which side of the number the result lay.

T1 sequence (Q86W56 whole entry): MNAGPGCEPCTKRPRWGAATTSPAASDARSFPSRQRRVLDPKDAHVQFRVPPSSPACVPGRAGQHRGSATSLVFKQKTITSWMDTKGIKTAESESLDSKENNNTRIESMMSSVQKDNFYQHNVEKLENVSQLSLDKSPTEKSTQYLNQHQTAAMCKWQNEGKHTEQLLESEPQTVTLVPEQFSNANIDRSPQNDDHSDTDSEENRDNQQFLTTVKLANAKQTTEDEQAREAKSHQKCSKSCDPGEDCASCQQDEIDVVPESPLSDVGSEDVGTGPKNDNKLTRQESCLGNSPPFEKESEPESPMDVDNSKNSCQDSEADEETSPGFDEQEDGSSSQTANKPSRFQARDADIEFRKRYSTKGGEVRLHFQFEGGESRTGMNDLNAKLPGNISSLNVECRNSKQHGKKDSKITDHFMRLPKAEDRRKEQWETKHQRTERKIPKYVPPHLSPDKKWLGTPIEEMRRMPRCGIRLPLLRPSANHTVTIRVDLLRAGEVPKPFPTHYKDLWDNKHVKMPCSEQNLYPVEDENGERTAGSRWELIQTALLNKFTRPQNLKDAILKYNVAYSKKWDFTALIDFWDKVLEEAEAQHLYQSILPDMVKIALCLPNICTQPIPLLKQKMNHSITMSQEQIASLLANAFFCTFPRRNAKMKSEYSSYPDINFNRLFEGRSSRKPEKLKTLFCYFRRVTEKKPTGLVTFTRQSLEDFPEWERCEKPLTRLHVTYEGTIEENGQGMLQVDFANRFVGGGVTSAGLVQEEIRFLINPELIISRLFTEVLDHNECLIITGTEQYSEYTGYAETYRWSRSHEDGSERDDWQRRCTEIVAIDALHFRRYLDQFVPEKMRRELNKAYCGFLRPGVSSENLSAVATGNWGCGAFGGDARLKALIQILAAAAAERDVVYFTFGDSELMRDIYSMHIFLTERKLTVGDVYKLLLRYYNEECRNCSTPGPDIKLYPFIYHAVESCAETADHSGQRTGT

Consider `N#CC1(NS(=O)(=O)c2cc(N3CC[C@H]4COC[C@H]4C3)c3cnn(-c4nnc(C(F)F)s4)c3c2)CC1` (relative stereo) [Example 56, 1-[({1-[5-(difluoromethyl)(1,3,4-thiadiazol-2-yl)]-4-(cis-8-oxa-3-azabicyclo-[4.3.0]non-3-yl)-1H-indazol-6-yl}sulfonyl)amino]cyclopropanecarbonitrile], for which the values for the IC50 (at PARG [1]; in test [2]) were 0.3 to 1 µM and 10 to 20 µM, respectively.
Taken in the same sequence, the figures for `N#CC1(NS(=O)(=O)c2cc(-c3ccc4cn[nH]c4c3)c3cnn(-c4nnc(C(F)F)s4)c3c2)CC1` [Example 2, 1-[({4-(1H-indazol-6-yl)-1-[5-(difluoromethyl)(1,3,4-thiadiazol-2-yl)]-1H-indazol-6-yl}sulfonyl)amino]cyclopropanecarbonitrile] were 1 to 10 µM and 20 to 30 µM.
For the molecule `CN(C)C(=O)c1ccc(-c2cc(S(=O)(=O)NC3(C#N)CC3)cc3c2cnn3-c2nnc(C(F)F)s2)cc1` [Example 3, [4-(1-[5-(difluoromethyl)(1,3,4-thiadiazol-2-yl)]-6-{[(cyanocyclopropyl)amino]sulfonyl}(1H-indazol-4-yl))phenyl]-N,N-dimethylcarboxamide], the IC50 against PARG [1] lay in the range of 0.1 to 0.3 µM; in test [2] it was 10 to 20 µM.
On the same counts, the results for `CN(C)C(=O)c1cccc(-c2cc(S(=O)(=O)NC3(C#N)CC3)cc3c2cnn3-c2nnc(C(F)F)s2)c1` [Example 4, [3-(1-[5-(difluoromethyl)(1,3,4-thiadiazol-2-yl)]-6-{[(cyanocyclopropyl)amino]sulfonyl}(1H-indazol-4-yl))phenyl]-N,N-dimethylcarboxamide] are 0.3 to 1 µM and 20 to 30 µM.
Taken in the same sequence, the figures for `N#CC1(NS(=O)(=O)c2cc(N3CCC4(COC4)C3)c3cnn(-c4nnc(C(F)F)s4)c3c2)CC1` [Example 34, 1-[({1-[5-(difluoromethyl)(1,3,4-thiadiazol-2-yl)]-4-(2-oxa-6-azaspiro[3.4]oct-6-yl)-1H-indazol-6-yl}sulfonyl)amino]cyclopropanecarbonitrile] were 0.3 to 1 µM and 20 to 30 µM.
Taken in the same sequence, the figures for `Cn1cnnc1N1CCN(c2cc(S(=O)(=O)NC3(C#N)CC3)cc3c2cnn3-c2nnc(C(F)F)s2)CC1` [Example 36, 1-[({1-[5-(difluoromethyl)(1,3,4-thiadiazol-2-yl)]-4-[4-(4-methyl(1,2,4-triazol-3-yl))piperazinyl]-1H-indazol-6-yl}sulfonyl)amino]cyclopropanecarbonitrile] were at most 0.1 µM and 10 to 20 µM.
As for `CNC(=O)C1CCN(c2cc(S(=O)(=O)NC3(C#N)CC3)cc3c2cnn3-c2nnc(C(F)F)s2)C1` (stereo not shown) [Example 53, [1-(1-[5-(difluoromethyl)(1,3,4-thiadiazol-2-yl)]-6-{[(cyanocyclopropyl)amino]sulfonyl}(1H-indazol-4-yl))pyrrolidin-3-yl]-N-methylcarboxamide], the IC50 lay in the range of 0.1 to 0.3 µM on PARG [1] and 10 to 20 µM in test [2].
Taken in the same sequence, the figures for `CN(C)C(=O)C1CCN(c2cc(S(=O)(=O)NC3(C#N)CC3)cc3c2cnn3-c2nnc(C(F)F)s2)C1` (stereo not shown) [Example 54, [1-(1-[5-(difluoromethyl)(1,3,4-thiadiazol-2-yl)]-6-{[(cyanocyclopropyl)amino]sulfonyl}(1H-indazol-4-yl))pyrrolidin-3-yl]-N,N-dimethylcarboxamide] were 0.1 to 0.3 µM and 10 to 20 µM.
Taken in the same sequence, the figures for `COC(=O)N1CCN(c2cc(S(=O)(=O)NC3(C#N)CC3)cc3c2cnn3-c2nnc(C(F)F)s2)CC1` [Example 58, methyl 4-(1-[5-(difluoromethyl)(1,3,4-thiadiazol-2-yl)]-6-{[(cyanocyclopropyl)amino]sulfonyl}-1H-indazol-4-yl)piperazinecarboxylate] were at most 0.1 µM and 1 to 10 µM.
On the same counts, the results for `N#CC1(NS(=O)(=O)c2cc(N3CCN4C(=O)OC[C@H]4C3)c3cnn(-c4nnc(C(F)F)s4)c3c2)CC1` [Example 61, 1-[({4-((1R)-7-oxo-8-oxa-3,6-diazabicyclo[4.3.0]non-3-yl)-1-[5-(difluoromethyl) (1,3,4-thiadiazol-2-yl)]-1H-indazol-6-yl}sulfonyl)amino]cyclopropanecarbonitrile] are at most 0.1 µM and 1 to 10 µM.
With `CN1CCCN(c2cc(S(=O)(=O)NC3(C#N)CC3)cc3c2cnn3-c2nnc(C(F)F)s2)CC1` [Example 63, 1-[({1-[5-(difluoromethyl)(1,3,4-thiadiazol-2-yl)]-4-(4-methyl(1,4-diazaperhydroepinyl))-1H-indazol-6-yl}sulfonyl)amino]cyclopropanecarbonitrile], the IC50 was at most 0.1 µM at PARG [1] and 10 to 20 µM in test [2].
For the molecule `N#CC1(NS(=O)(=O)c2cc(N3CCC(C(F)F)CC3)c3cnn(-c4nnc(C(F)F)s4)c3c2)CC1` [Example 64, 1-[({1-[5-(difluoromethyl)(1,3,4-thiadiazol-2-yl)]-4-[4-(difluoromethyl)piperidyl]-1H-indazol-6-yl}sulfonyl)amino]cyclopropanecarbonitrile], the IC50 lay in the range of 1 to 10 µM at PARG [1] and 20 to 30 µM in test [2].
With `CN1Cc2cn(-c3cc(S(=O)(=O)NC4(C#N)CC4)cc4c3cnn4-c3nnc(C(F)F)s3)nc2C1` [Example 73, 1-[({1-[5-(difluoromethyl)(1,3,4-thiadiazol-2-yl)]-4-(5-methyl(3-pyrrolino[3,4-c]pyrazol-2-yl))-1H-indazol-6-yl}sulfonyl)amino]cyclopropanecarbonitrile], the IC50 lay within 0.1 to 0.3 µM at PARG [1] and 1 to 10 µM on PARG [3].
For `CNC(=O)N1CCN(c2cc(S(=O)(=O)NC3(C#N)CC3)cc3c2cnn3-c2nnc(C(F)F)s2)CC1` [Example 74, 4-(6-(N-(1-cyanocyclopropyl)sulfamoyl)-1-(5-(difluoromethyl)-1,3,4-thiadiazol-2-yl)-1H-indazol-4-yl)-N-methylpiperazine-1-carboxamide], the IC50 on PARG [1] was at most 0.1 µM; in test [2] it was 1 to 10 µM.
As for `N#CC1(NS(=O)(=O)c2cc(N3CCCC3)c3cnn(-c4nnc(C(F)F)s4)c3c2)CC1` [Example 101, 1-[({1-[5-(difluoromethyl)(1,3,4-thiadiazol-2-yl)]-4-pyrrolidinyl-1H-indazol-6-yl}sulfonyl)amino]cyclopropanecarbonitrile], the IC50 at PARG [1] and against PARG [3] was 1 to 10 µM each time.
Regarding `CN1CCN(c2cc(S(=O)(=O)NC3(C#N)CC3)cc3c2cnn3-c2nnc(C(F)F)s2)CC1` [Example 102, 1-[({1-[5-(difluoromethyl)(1,3,4-thiadiazol-2-yl)]-4-(4-methylpiperazinyl)-1H-indazol-6-yl}sulfonyl)amino]cyclopropanecarbonitrile], the results for the IC50 at PARG [1] and against PARG [3] were 0.1 to 0.3 µM and 0.3 to 1 µM, respectively.
Take `N#CC1(NS(=O)(=O)c2cc(N3CCC(F)(F)CC3)c3cnn(-c4nnc(C(F)F)s4)c3c2)CC1` [Example 105, 1-[({1-[5-(difluoromethyl)(1,3,4-thiadiazol-2-yl)]-4-(4,4-difluoropiperidyl)-1H-indazol-6-yl}sulfonyl)amino]cyclopropanecarbonitrile]: the IC50 on PARG [1] was 1 to 10 µM; at PARG [3], 0.3 to 1 µM.
